From patent US8148391B2 (Cephalon, Inc., priority 2006, dated 2012)
Like-named read-outs stand apart in the source and are kept apart here.

Experiments:
[1] = biological target: T1, c-Met (cytoplasmic domain) (Homo sapiens, UniProt P08581); experiment: c-Met Kinase Assay (same methods as for ALK, with modifications); assay type: biochemical
T1 construct: 10 ng/mL c-Met (cytoplasmic domain, Invitrogen Corporation #PV3143); purchased Invitrogen Corporation PV3143
Summary of the method: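 Wells were coated with 10 μg/mL phospholipase C-γ substrate in TBS, and reactions were started with 10 ng/mL c-Met cytoplasmic domain and run at 37° C for 15 minutes. Phosphorylated product was detected with Eu-N1-labeled PT66 antibody. IC50 values came from sigmoidal variable-slope fits of percent inhibition versus log compound concentration.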

[2] = biological target: T2, baculovirus-expressed ALK (Homo sapiens, UniProt Q9UM73); experiment: ALK Kinase Assay (ELISA-type, time-resolved fluorescence); assay type: biochemical
T2 construct: host or cells: baculovirus expression system
T2 sequence (Q9UM73 19-1620): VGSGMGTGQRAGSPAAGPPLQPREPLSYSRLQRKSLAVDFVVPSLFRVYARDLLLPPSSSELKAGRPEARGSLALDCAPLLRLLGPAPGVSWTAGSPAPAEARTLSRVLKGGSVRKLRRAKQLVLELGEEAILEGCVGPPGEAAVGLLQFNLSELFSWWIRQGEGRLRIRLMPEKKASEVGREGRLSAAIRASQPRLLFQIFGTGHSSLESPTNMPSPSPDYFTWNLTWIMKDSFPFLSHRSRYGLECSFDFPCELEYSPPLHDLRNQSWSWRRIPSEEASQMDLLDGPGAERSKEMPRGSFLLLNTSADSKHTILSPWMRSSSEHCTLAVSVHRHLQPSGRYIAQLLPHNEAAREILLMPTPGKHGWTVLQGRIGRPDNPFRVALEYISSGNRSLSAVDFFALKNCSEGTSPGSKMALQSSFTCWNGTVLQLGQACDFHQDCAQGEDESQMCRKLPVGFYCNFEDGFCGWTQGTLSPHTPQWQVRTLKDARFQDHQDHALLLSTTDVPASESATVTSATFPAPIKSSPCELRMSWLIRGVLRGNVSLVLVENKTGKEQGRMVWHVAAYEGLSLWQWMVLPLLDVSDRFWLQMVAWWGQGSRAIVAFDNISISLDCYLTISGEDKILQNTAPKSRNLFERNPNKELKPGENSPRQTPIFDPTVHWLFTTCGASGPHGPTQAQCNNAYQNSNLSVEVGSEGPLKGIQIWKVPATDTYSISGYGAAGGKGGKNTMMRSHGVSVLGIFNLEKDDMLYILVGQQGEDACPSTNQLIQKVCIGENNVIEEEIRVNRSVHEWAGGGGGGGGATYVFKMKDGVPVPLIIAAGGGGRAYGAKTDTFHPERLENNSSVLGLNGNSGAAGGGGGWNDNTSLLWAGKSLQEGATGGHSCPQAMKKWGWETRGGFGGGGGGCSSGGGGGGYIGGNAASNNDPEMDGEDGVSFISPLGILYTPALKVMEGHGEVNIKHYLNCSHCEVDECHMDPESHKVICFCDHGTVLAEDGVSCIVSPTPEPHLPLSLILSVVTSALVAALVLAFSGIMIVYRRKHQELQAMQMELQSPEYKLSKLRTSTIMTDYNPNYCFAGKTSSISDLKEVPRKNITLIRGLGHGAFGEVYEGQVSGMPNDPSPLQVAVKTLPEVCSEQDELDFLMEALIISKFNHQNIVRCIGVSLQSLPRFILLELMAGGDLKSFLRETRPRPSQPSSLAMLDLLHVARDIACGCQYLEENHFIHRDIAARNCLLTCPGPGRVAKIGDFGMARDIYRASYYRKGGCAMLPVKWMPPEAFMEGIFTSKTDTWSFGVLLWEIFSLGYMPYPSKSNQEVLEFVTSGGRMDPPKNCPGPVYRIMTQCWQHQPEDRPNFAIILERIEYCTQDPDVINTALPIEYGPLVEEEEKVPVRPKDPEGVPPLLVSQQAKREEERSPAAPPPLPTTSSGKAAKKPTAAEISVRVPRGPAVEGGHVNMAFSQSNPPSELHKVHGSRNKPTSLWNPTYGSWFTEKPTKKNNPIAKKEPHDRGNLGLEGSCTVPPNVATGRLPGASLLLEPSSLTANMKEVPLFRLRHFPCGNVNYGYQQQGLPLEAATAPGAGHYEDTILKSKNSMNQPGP
Summary of the method: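 Substrate coating: phospholipase C-γ, 10 μg/mL in TBS. Kinase step: 30 ng/ml ALK, 15 min, 37° C. Detection and analysis: Eu-N1 PT66 antibody, with IC50 fitted as a sigmoidal variable-slope dose-response curve.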

[3] = c-Met kinase inhibition, 1 μM ATP, read-out: cMet Activity
[4] = ALK kinase inhibition, 1 μM ATP, read-out: ALK Activity
[5] = 1 μM ATP (Km level), read-out: cMet Activity (c-Met Kinase Inhibition, IC50)
[6] = 1 μM ATP (Km level), read-out: ALK Activity (ALK Kinase Inhibition, IC50)
[7] = c-Met kinase inhibition, 1 μM ATP (Km level), read-out: cMet Activity
[8] = ALK kinase inhibition, 1 μM ATP (Km level), read-out: ALK Activity

T1 sequence (P08581 956-1390 limits assumed): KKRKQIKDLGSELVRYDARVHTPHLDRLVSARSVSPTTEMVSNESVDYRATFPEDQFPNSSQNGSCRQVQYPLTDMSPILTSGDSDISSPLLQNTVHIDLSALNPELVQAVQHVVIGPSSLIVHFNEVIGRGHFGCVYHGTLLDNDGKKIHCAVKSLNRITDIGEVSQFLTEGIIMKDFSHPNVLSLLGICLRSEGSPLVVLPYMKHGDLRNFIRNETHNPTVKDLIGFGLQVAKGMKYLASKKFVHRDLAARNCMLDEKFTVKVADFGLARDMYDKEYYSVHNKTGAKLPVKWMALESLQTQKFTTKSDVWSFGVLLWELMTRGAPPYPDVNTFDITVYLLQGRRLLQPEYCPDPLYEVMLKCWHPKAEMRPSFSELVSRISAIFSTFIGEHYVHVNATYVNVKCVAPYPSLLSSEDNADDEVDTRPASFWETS

SMILES	IC50 [1, 3] [µM]	IC50 [2, 4] [µM]	IC50 [1, 5] [µM]	IC50 [2, 6] [µM]	also measured
COc1cc2c(cc1Nc1ncc(Cl)c(N[C@H]3[C@@H](C(N)=O)[C@@H]4C=C[C@H]3C4)n1)CCN(C[C@H](C)O)CC2 [Example 1558, (1S,2S,3R,4R)-3-{5-Chloro-2-[3-((S)-2-hydroxy-propyl)-8-methoxy-2,3,4,5-tetrahydro-1H-3-benzazepin-7-ylamino]-pyrimidin-4-ylamino}-bicyclo[2.2.1]hept-5-ene-2-carboxylic acid amide]	> 10	< 0.1	–	–	–
CNC(=O)c1cccc(Cl)c1Nc1nc(Nc2ccc3c(c2)CCC(N2CCC(N4CCN(C)CC4)CC2)CC3)ncc1Cl (stereo not drawn) [Example 1488, 3-Chloro-2-(5-chloro-2-{7-[4-(4-methyl-piperazin-1-yl)-piperidin-1-yl]-6,7,8,9-tetrahydro-5H-benzocyclohepten-2-ylamino}-pyrimidin-4-ylamino)-N-methyl-benzamide]	< 0.1	0.1 to 1	–	–	–
CCN1CCc2cc(Nc3ncc(Cl)c(Nc4ccccc4C(=O)NC)n3)c(OC)c(N)c2CC1 [Example 50, 2-[2-(9-Amino-3-ethyl-8-methoxy-2,3,4,5-tetrahydro-1H-benzo[d]azepin-7-ylamino)-5-chloro-pyrimidin-4-ylamino]-N-methyl-benzamide]	–	–	–	–	IC50 [1, 7]: > 10 µM; IC50 [2, 8]: < 0.1 µM
CNC(=O)[C@@H]1CCC[C@@H]1Nc1nc(Nc2ccc3c(c2)CCN(CCOC)CC3)ncc1Cl (relative stereo) [Example 372, cis-2-{5-Chloro-2-[3-(2-methoxy-ethyl)-2,3,4,5-tetrahydro-1H-benzo[d]azepin-7-ylamino]-pyrimidin-4-ylamino}-cyclopentanecarboxylic acid methylamide]	–	–	–	–	IC50 [1, 7]: 0.1 to 1 µM; IC50 [2, 8]: < 0.1 µM
C#CCNC(=O)c1cccc(F)c1Nc1nc(Nc2ccc3c(c2)N(CC)C(=O)CN(C(=O)OCC)C3)ncc1Cl [Example 1876, 8-[5-Chloro-4-(2-fluoro-6-prop-2-ynylcarbamoyl-phenylamino)-pyrimidin-2-ylamino]-1-ethyl-2-oxo-1,2,3,5-tetrahydro-benzo[e][1,4]diazepine-4-carboxylic acid ethyl ester]	–	–	–	–	IC50 [1, 7]: < 0.1 µM; IC50 [2, 8]: 0.1 to 1 µM
COCCN1CCc2ccc(Nc3ncc(Cl)c(N[C@@H]4CCC[C@@H](N(CC#N)S(C)(=O)=O)C4)n3)cc2CC1 (relative stereo) [Example 1382, rel-N-((1R,3R)-3-{5-Chloro-2-[3-(2-methoxy-ethyl)-2,3,4,5-tetrahydro-1H-benzo[d]azepin-7-ylamino]-pyrimidin-4-ylamino}-cyclohexyl)-N-cyanomethyl-methanesulfonamide]	–	–	–	–	IC50 ([1]; 1 μM ATP (Km level), 10 ng/mL c-Met, read-out: cMet Activity (c-Met kinase inhibition, IC50 class)): 1 to 10 µM; IC50 ([2]; 1 μM ATP (Km level), 30 ng/ml ALK, 37° C., 15 minutes, read-out: ALK Activity (ALK kinase inhibition, IC50 class)): 0.1 to 1 µM
COCCN1CCc2cc(Nc3ncc(Cl)c(Nc4cc(Cl)ccc4OC)n3)c(OC)cc2CC1 [Example 243, 5-Chloro-N*4*-(5-chloro-2-methoxy-phenyl)-N*2*-[8-methoxy-3-(2-methoxy-ethyl)-2,3,4,5-tetrahydro-1H-benzo[d]azepin-7-yl]-pyrimidine-2,4-diamine]	–	–	–	–	IC50 [1, 7]: > 10 µM; IC50 [2, 8]: < 0.1 µM
CCN1C(=O)CN(CC(=O)N(C)C)Cc2cc(OC)c(Nc3ncc(Cl)c(Nc4ccc(N5CCOCC5)cc4OC)n3)cc21 [Example 727, 2-{8-[5-Chloro-4-(2-methoxy-4-morpholin-4-yl-phenylamino)-pyrimidin-2-ylamino]-1-ethyl-7-methoxy-2-oxo-1,2,3,5-tetrahydro-benzo[e][1,4]diazepin-4-yl}-N,N-dimethyl-acetamide]	–	–	> 10	0.1 to 1	–
CCN1C(=O)C(NC(=O)COC)CC(C)(C)c2ccc(Nc3ncc(Cl)c(Nc4c(F)cccc4C(=O)NC)n3)cc21 (stereo not drawn) [Example 1644, 2-{5-Chloro-2-[1-ethyl-3-(2-methoxy-acetylamino)-5,5-dimethyl-2-oxo-2,3,4,5-tetrahydro-1H-benzo[b]azepin-8-ylamino]-pyrimidin-4-ylamino}-3-fluoro-N-methyl-benzamide]	< 0.1	0.1 to 1	–	–	–
CC(C)N1C(=O)CCC(C)(C)c2ccc(Nc3ncc(Cl)c(N[C@H]4[C@@H](C(N)=O)[C@@H]5C=C[C@H]4C5)n3)cc21 [Example 1590, (1S,2S,3R,4R)-3-[5-Chloro-2-(1-isopropyl-5,5-dimethyl-2-oxo-2,3,4,5-tetrahydro-1H-benzo[b]azepin-8-ylamino)-pyrimidin-4-ylamino]-bicyclo[2.2.1]hept-5-ene-2-carboxylic acid amide]	1 to 10	< 0.1	–	–	–
CNC(=O)c1ccccc1Nc1nc(Nc2cccc3c2C(=O)N(C)CCN3C)ncc1Cl [Example 213, 2-[5-Chloro-2-(1,4-dimethyl-5-oxo-2,3,4,5-tetrahydro-1H-benzo[e][1,4]diazepin-6-ylamino)-pyrimidin-4-ylamino]-N-methyl-benzamide]	–	–	–	–	IC50 [1, 7]: > 10 µM; IC50 [2, 8]: 1 to 10 µM
COCCNC1CCc2cc(Nc3ncc(Cl)c(Nc4c(OC)ccc5c4CN(S(C)(=O)=O)CC(=O)N5)n3)c(OC)cc2CC1 (stereo not drawn) [Example 750, 6-{5-Chloro-2-[3-methoxy-7-(2-methoxy-ethylamino)-6,7,8,9-tetrahydro-5H-benzocyclohepten-2-ylamino]-pyrimidin-4-ylamino}-4-methanesulfonyl-7-methoxy-1,3,4,5-tetrahydro-benzo[e][1,4]diazepin-2-one]	–	–	> 10	1 to 10	–

The next lines start with results.

IC50 [1, 3] [µM]	IC50 [2, 4] [µM]	IC50 [1, 5] [µM]	IC50 [2, 6] [µM]	SMILES	also measured
–	–	0.1 to 1	< 0.1	COc1ccc(Nc2nc(Nc3ccc4c(c3)C(C)(C)CCC(=O)N4C)ncc2Cl)c(-n2cccn2)c1 [Example 619, 7-[5-Chloro-4-(4-methoxy-2-pyrazol-1-yl-phenylamino)-pyrimidin-2-ylamino]-1,5,5-trimethyl-1,3,4,5-tetrahydro-benzo[b]azepin-2-one]	–
–	–	< 0.1	< 0.1	CCN1CCN(CC)c2cc(Nc3ncc(Cl)c(Nc4c(F)cccc4C(=O)NC)n3)ccc2C1 [Example 716, 2-[5-Chloro-2-(1,4-diethyl-2,3,4,5-tetrahydro-1H-1,4-benzodiazepin-8-ylamino)-pyrimidin-4-ylamino]-3-fluoro-N-methyl-benzamide]	–
–	–	0.1 to 1	< 0.1	COc1c(Nc2ncc(Cl)c(Nc3ccccc3S(=O)(=O)N3CCCC3)n2)ccc2c1CCC(NCCO)CC2 (stereo not drawn) [Example 704, 2-(2-{5-Chloro-4-[2-(pyrrolidine-1-sulfonyl)-phenylamino]-pyrimidin-2-ylamino}-1-methoxy-6,7,8,9-tetrahydro-5H-benzocyclohepten-7-ylamino)-ethanol]	–
–	–	> 10	< 0.1	CN1CCN(C)c2c(Nc3ncc(Cl)c(N[C@@H]4CCCC[C@H]4NS(C)(=O)=O)n3)cccc2C1=O [Example 542, N-{(1R,2R)-2-[5-Chloro-2-(1,4-dimethyl-5-oxo-2,3,4,5-tetrahydro-1H-benzo[e][1,4]diazepin-9-ylamino)-pyrimidin-4-ylamino]-cyclohexyl} methanesulfonamide]	–
< 0.1	< 0.1	–	–	CNC(=O)c1ccccc1Nc1nc(Nc2ccc3c(c2)CC(=O)NCC3)ncc1Cl [Example 1811, 2-[5-Chloro-2-(4-oxo-2,3,4,5-tetrahydro-1H-benzo[d]azepin-7-ylamino)-pyrimidin-4-ylamino]-N-methylbenzamide]	–
0.1 to 1	0.1 to 1	–	–	CCN1CC(=O)Nc2cc(Nc3ncc(Cl)c(Nc4c(C)csc4C(=O)NC)n3)ccc2C1 [Example 1865, 3-[5-Chloro-2-(4-ethyl-2-oxo-2,3,4,5-tetrahydro-1H-benzo[e][1,4]diazepin-8-ylamino)-pyrimidin-4-ylamino]-4-methyl-thiophene-2-carboxylic acid methylamide]	–
